Patent US7455998B2, “Methods for forming structurally defined organic molecules” (Dow Corning Corporation, priority 2004, dated 2008)

Key:
trypsin [1] = target: T1, trypsin (Bos taurus, UniProt P00760); assay: Trypsin-catalyzed hydrolysis and condensation of alkoxysilanes; format: biochemical, bovine; parameters: purchased Sigma-Aldrich #T4665; host or cells: bovine pancreas; settings: 4:1 monomer to enzyme weight ratio, 25° C., three hours
T1 sequence (P00760 24-246): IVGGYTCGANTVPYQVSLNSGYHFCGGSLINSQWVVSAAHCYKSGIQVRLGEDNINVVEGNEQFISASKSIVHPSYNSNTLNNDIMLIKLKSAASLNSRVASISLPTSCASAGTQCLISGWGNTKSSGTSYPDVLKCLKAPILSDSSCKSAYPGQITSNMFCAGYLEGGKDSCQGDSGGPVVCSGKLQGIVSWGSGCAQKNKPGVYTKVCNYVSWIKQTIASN

trypsin [2] = target: T1, trypsin; assay: Trypsin-catalyzed ring opening polymerization of cyclic siloxanes; format: biochemical, bovine; parameters: purchased Sigma-Aldrich #T4665; host or cells: bovine pancreas; settings: 25° C., pH 7.0, 8 days, qualitative GC; for Cyclic Area Percent, Trimer (x = 3), Trypsin / Cyclic Area Percent, Tetramer (x = 4), Trypsin / Cyclic Area Percent, Pentamer (x = 5), Trypsin: with trypsin; for Cyclic Area Percent, Trimer (x = 3), Control / Cyclic Area Percent, Tetramer (x = 4), Control / Cyclic Area Percent, Pentamer (x = 5), Control: without trypsin
Description: The ability of trypsin to catalyze the cleavage and formation of Si—O bonds during the ring opening polymerization of cyclic siloxanes was explored under mild conditions. Specifically, five cyclic siloxanes: hexamethylcyclotrisiloxane, octamethylcyclotetrasiloxane, trimethyltri(trifluoropropyl)cyclotrisiloxane, tetramethyltetra(trifluoropropyl)cyclotetrasiloxane, and tetramethyltetraphenylcyclotetrasiloxane, were selected to study how the activity of trypsin varied as a result of different steric and electronic interactions with the substrate.
The two-phase reactions were formulated with a 4:1 monomer to enzyme weight ratio and conducted at 25° C. in neutral media (pH 7.0) for 8 days. The reaction products were isolated and qualitatively analyzed by GC (Table 5).

[3] = Protease-catalyzed condensation study after three hours; format: biochemical
Description: In comparison to control reactions, the ability of the proteases detailed in Table 3 to catalyse siloxane condensation was screened with […]. Comparatively, the original reactions conducted in the enzyme-catalysed condensation study were performed for six days versus three hours in this study.
Prior to reaction, the glass vials were silylated. […].
TLCK inhibits trypsin by alkylating the histidine residue in the catalytic triad.

[4] = Hydrolysis and condensation control reactions after three hours; settings: for condensation of trimethylethoxysilane (result in words): pH 7.0, 25° C., three hours
Description: Prior to reaction, the alkoxysilane was pre-treated with sodium hydrogencarbonate due to the potential presence of residual chloro-functional silanes. The reactions were formulated with a 4:1 trimethylethoxysilane to protein weight ratio (˜1000:l alkoxysilane to trypsin mole ratio) in neutral media (pH 7.0) and conducted at 25° C. for three hours.

[5] = Enzyme-catalyzed condensation study after six days; format: biochemical; settings: water, 25° C.
Description: This study was directed to an enzyme screen with […] in order to evaluate the ability of various enzymes to catalyze the formation of a siloxane bond. Based on the similarities of the proteins isolated from the Tethya aurantia marine sponge (silicatein), Cylindrotheca fusiformis diatom (silaffin), and Equisetum telmateia plant (biopolymer extract), a series of lipases and serine-proteases were selected as homologous proteolytic enzymes. […] […]. In this study, control reactions were defined as non-enzymatic reactions. Specifically, experiments conducted in the absence of a protein were defined as negative control reactions. Proteinaceous molecules such as bovine serum albumin and porcine γ-globulins were used to study non-specific protein catalysis.
[…]. […] (˜200 mg/mL).

[6] = Hydrolysis and condensation of trimethylethoxysilane by different sources of trypsin; effect of calcium; format: biochemical; settings: for increase of yield of the condensation of trimethylsilanol with calcium: 20 mM CaCl2, pH 7.0, 25° C., three hours; for hydrolysis of trimethylethoxysilane and condensation of trimethylsilanol (result in words): pH 7.0, 25° C.
Description: Although various sources (e.g. mammalian, fish) of trypsin are similar (e.g. tertiary structure), their selectivity and activity may be different. […] . The reaction products were isolated and quantitatively analysed by GC (FIG. 24).
Calcium activation of trypsin induces changes in the tertiary structure of the enzyme. […] . […] The reaction products were isolated and quantitatively analysed by GC (FIG. 25).

## CCO[Si](C)(C)CCCOCC1CO1 (centres unmarked) [3-glycidoxypropyldimethylethoxysilane]
Trypsin [1]
  trypsin-catalyzed hydrolysis and condensation (result in words): preferentially catalyze the hydrolysis and condensation

## C[Si]1(C)O[Si](C)(C)O[Si](C)(C)O1 [A, hexamethylcyclotrisiloxane]
Trypsin [2]
  Cyclic Area Percent, Trimer (x = 3), Trypsin: (100)
  Cyclic Area Percent, Trimer (x = 3), Control: (100)

## C[Si]1(C)O[Si](C)(C)O[Si](C)(C)O[Si](C)(C)O1 [B, octamethylcyclotetrasiloxane]
Trypsin [2]
  Cyclic Area Percent, Tetramer (x = 4), Trypsin: (99.8)
  Cyclic Area Percent, Trimer (x = 3), Trypsin: (0.2)
  Cyclic Area Percent, Tetramer (x = 4), Control: (99.8)
  Cyclic Area Percent, Trimer (x = 3), Control: (0.2)

## C[Si]1(CCC(F)(F)F)O[Si](C)(CCC(F)(F)F)O[Si](C)(CCC(F)(F)F)O1 (centres unmarked) [C, trimethyltri(trifluoropropyl)cyclotrisiloxane]
Trypsin [2]
  Cyclic Area Percent, Pentamer (x = 5), Trypsin: (1.0)
  Cyclic Area Percent, Tetramer (x = 4), Trypsin: (1.9)
  Cyclic Area Percent, Trimer (x = 3), Trypsin: (97.1)
  Cyclic Area Percent, Pentamer (x = 5), Control: (0.8)
  Cyclic Area Percent, Tetramer (x = 4), Control: (1.7)
  Cyclic Area Percent, Trimer (x = 3), Control: (97.5)

## [Ca+2].[Cl-].[Cl-] [CaCl2, calcium chloride]
[3]; pH 7
  condensation of trimethylsilanol (result in words): not observed
[4]
  condensation of trimethylethoxysilane (result in words): not observed

## C[Si]1(CCC(F)(F)F)O[Si](C)(CCC(F)(F)F)O[Si](C)(CCC(F)(F)F)O[Si](C)(CCC(F)(F)F)O1 (centres unmarked) [D, tetramethyltetra(trifluoropropyl)cyclotetrasiloxane]
Trypsin [2]
  Cyclic Area Percent, Pentamer (x = 5), Trypsin: (5.1)
  Cyclic Area Percent, Tetramer (x = 4), Trypsin: (94.9)
  Cyclic Area Percent, Trimer (x = 3), Trypsin: (0)
  Cyclic Area Percent, Pentamer (x = 5), Control: (3.4)
  Cyclic Area Percent, Tetramer (x = 4), Control: (96.3)
  Cyclic Area Percent, Trimer (x = 3), Control: (0.2)

## C[Si]1(c2ccccc2)O[Si](C)(c2ccccc2)O[Si](C)(c2ccccc2)O[Si](C)(c2ccccc2)O1 (centres unmarked) [E, tetramethyltetraphenylcyclotetrasiloxane]
Trypsin [2]
  Cyclic Area Percent, Tetramer (x = 4), Trypsin: (100)
  Cyclic Area Percent, Tetramer (x = 4), Control: (100)

## Cn1ccnc1 [N-methylimidazole]
[3]; pH 7.0, three hours
  condensation of trimethylsilanol (result in words): not observed
[4]
  condensation of trimethylethoxysilane (result in words): not observed

## Cc1ccc(S(=O)(=O)N[C@@H](CCCCN)C(=O)CCl)cc1.Cl [TLCK, N-α-p-tosyl-L-lysine chloromethyl ketone hydrochloride]
[3]; replicate condensation experiment
  product yield of the α-chymotrypsin condensation reaction after TLCK treatment: significantly decreased

## CCO[Si](C)(C)CCCN [aminopropyldimethylethoxysilane]
Trypsin [1]
  trypsin-catalyzed hydrolysis and condensation (result in words): fully hydrolysed and condensed in the presence and absence of trypsin

## COCCOCCOCCOCCO[Si](C)(C)C [glycol-functional silane]
Trypsin [1]
  trypsin-catalyzed hydrolysis and condensation (result in words): not definitive

## C[Si]1(C)O[Si](C)(C)O[Si](C)(O)O[Si](C)(C)O1 [heptamethylhydroxytetracyclosiloxane]
Trypsin [1]
  trypsin-catalyzed hydrolysis and condensation (result in words): did not catalyze the condensation

## c1c[nH]cn1 [imidazole]
[3]; pH 7.0, three hours
  condensation of trimethylsilanol (result in words): not observed
[4]
  condensation of trimethylethoxysilane (result in words): not observed

## CCO[Si](C)(C)c1ccccc1 [phenyldimethylethoxysilane]
Trypsin [1]
  trypsin-catalyzed hydrolysis and condensation (result in words): hydrolysed but not condensed

## CCCCCCO[Si](C)(C)C [trimethylhexoxysilane]
Trypsin [1]
  trypsin-catalyzed hydrolysis and condensation (result in words): catalyzed the partial hydrolysis of trimethylhexoxysilane without condensation

## elastase: porcine pancreatic elastase
[3]; pH 7.0, three hours
  condensation of trimethylsilanol (result in words): inactivity

## poly-L-lysine
[3]; pH 7.0, three hours
  condensation of trimethylsilanol (result in words): not observed
[4]; neutral medium (pH 7.0)
  hydrolysis of trimethylethoxysilane (result in words): promoted the hydrolysis
[4]
  condensation of trimethylethoxysilane (result in words): not observed

B1: Candida antarctica lipase B: Candida antarctica lipase B immobilized on acrylic resin beads (protein, UniProt P41365 26-342, looked up)
Lipase B: LPSGSDPAFSQPKSVLDAGLTCQGASPSSVSKPILLVPGTGTTGPQSFDSNWIPLSTQLGYTPCWISPPPFMLNDTQVNTEYMVNAITALYAGSGNNKLPVLTWSQGGLVAQWGLTFFPSIRSKVDRLMAFAPDYKGTVLAGPLDALAVSAPSVWQQTTGSALTTALRNAGGLTQIVPTTNLYSATDEIVQPQVSNSPLDSSYLFNGKNVQAQAVCGPLFVIDHAGSLTSQFSYVVGRSALRSTTGQARSADYGITDCNPLPANDLTPEQKVAAAALLAPAAAAIVAGPKQNCEPDLMPYARPFAVGKRTCSGIVTP
modifications: immobilized on acrylic resin
notes: Candida antarctica lipase B immobilized on acrylic resin beads
[5]
  condensation of trimethylsilanol, Water: ✓ (determined to catalyse the condensation of greater than ten times more trimethylsilanol than the negative control reactions; as well as, greater than three or ten times more trimethylsilanol than the BSA reactions in organic and aqueous media, respectively)

B2: Rhizomucor miehei lipase: fungal lipase (protein, UniProt P19515 95-363, looked up)
Lipase: SIDGGIRAATSQEINELTYYTTLSANSYCRTVIPGATWDCIHCDATEDLKIIKTWSTLIYDTNAMVARGDSEKTIYIVFRGSSSIRNWIADLTFVPVSYPPVSGTKVHKGFLDSYGEVQNELVATVLDQFKQYPSYKVAVTGHSLGGATALLCALDLYQREEGLSSSNLFLYTQGQPRVGDPAFANYVVSTGIPYRRTVNERDIVPHLPPAAFGFLHAGEEYWITDNSPETVQVCTSDLETSDCSNSIVPFTSVLDHLSYFGINTGLCT
[5]
  condensation of trimethylsilanol, Water: ✓ (determined to catalyse the condensation of greater than ten times more trimethylsilanol than the negative control reactions; as well as, greater than three or ten times more trimethylsilanol than the BSA reactions in organic and aqueous media, respectively)

B3: recombinant bovine trypsin: Recombinant bovine trypsin expressed in maize (protein, UniProt P00760 24-246, looked up)
Serine protease 1: IVGGYTCGANTVPYQVSLNSGYHFCGGSLINSQWVVSAAHCYKSGIQVRLGEDNINVVEGNEQFISASKSIVHPSYNSNTLNNDIMLIKLKSAASLNSRVASISLPTSCASAGTQCLISGWGNTKSSGTSYPDVLKCLKAPILSDSSCKSAYPGQITSNMFCAGYLEGGKDSCQGDSGGPVVCSGKLQGIVSWGSGCAQKNKPGVYTKVCNYVSWIKQTIASN
modifications: expressed in maize
[6]
  increase of yield of the condensation of trimethylsilanol with calcium: 65%
  hydrolysis of trimethylethoxysilane and condensation of trimethylsilanol (result in words): catalysed the complete hydrolysis

B4: porcine pancreas trypsin: porcine pancreatic trypsin (protein, UniProt P00761 9-231, looked up)
Trypsin: IVGGYTCAANSIPYQVSLNSGSHFCGGSLINSQWVVSAAHCYKSRIQVRLGEHNIDVLEGNEQFINAAKIITHPNFNGNTLDNDIMLIKLSSPATLNSRVATVSLPRSCAAAGTECLISGWGNTKSSGSSYPSLLQCLKAPVLSDSSCKSSYPGQITGNMICVGFLEGGKDSCQGDSGGPVVCNGQLQGIVSWGYGCAQKNKPGVYTKVCNYVNWIQQTIAAN
[6]
  increase of yield of the condensation of trimethylsilanol with calcium: 125%
  hydrolysis of trimethylethoxysilane and condensation of trimethylsilanol (result in words): catalysed the complete hydrolysis
[6]; listed as trypsin from porcine pancreas
  hydrolysis of trimethylethoxysilane and condensation of trimethylsilanol (result in words): observed to catalyse the hydrolysis and condensation reactions
